# Experimental data reported in patent US20100248372A1, “Composition and Method for Modulating Plant Transformation” (priority 2009, published 2010).
# Read-outs that look alike come from different tables or passages of the source.
# Columns and labels:
# Arabidopsis thaliana = test: Homologous recombination (GUS reporter, histochemical staining) in plants grown on supplemented medium; type: in vivo; details: for increase in homologous recombination vs control MS medium: about 3 weeks; for effect on homologous recombination frequency: FIG. 3; for RR (recombination rate): 3-week-old plants
# Description: Homologous recombination was detected in plants, in particular Arabidopsis thaliana and tobacco plants, that were transformed with scorable reporter markers, for example, beta-glucuronidase (uidA or GUS). Upon homologous recombination, the marker gene is restored. Homologous recombination events were identified using histochemical staining. […] A recombination substrate generally consists of two non-functional overlapping copies of a GUS gene. Damage to one of the regions of homology may be repaired using the second copy as a template. A simple count of the number of recombination events in a population of plants was used to conduct quantitative analyses of beta-glucuronidase (GUS) activity. The homologous recombination frequency (HRF) was determined by relating the number of blue spots counted which are indicative of […] and then relating that number to the total number of plants scored. The recombination rate (RR) was determined by relating the HRF to the total number of haploid genomes present in the plant.
# The total DNA of the transgenic lines was isolated from whole plants at preferably the full rosette stage using a Nucleon™ PhytoPure™ plant DNA extraction kit from Amersham Life Science. DNA may also be isolated from plants at a different development stage. The yield of total DNA measured in one of micrograms per plant or micrograms per plant organ was compared with the known mean DNA content, 0.16 pg of an A. thaliana cell, to give an approximate number of genomes present in plants (Swoboda et al., Mol. Gen. Genet., 1993, 237(1-2): 33-40). The total DNA was isolated from one of all leaves, roots, and stems of 4 plants per each experimental group for each transgenic line. The average DNA content from these samples was used to estimate the number of genomes present.
# Tissues were prepared from A. thaliana plants that were germinated and grown for a period of 3 weeks on a medium containing 0, 25, 75, and 100 mM of NaCl. The recombination rate (RR) was calculated by scoring the HRF in separate groups of 3-week-old plants and then relating these numbers to the total number of genomes present in the plants. Each of the calculated values represents the mean value for the RR. […] The “Fold Increase” values shown in Table 1 were calculated by relating the data from plants grown on 25, 75 and 100 mM of NaCL to the data from plants grown in the absence of NaCl.
# Plants were germinated and grown on MS medium supplemented with one of 25 mM NaCl, 12.5 mM of Na2SO4, 12.5 mM of MgCl2, and 12.5 mM of MgSO4. Control plants were grown on standard MS medium. […] The data shown is the RR as an average of two independent experiments, each having 200 plants per experimental group.
# The effects of KCl on plant transformation were measured using transgenic plants germinated from Arabidopsis line #11 obtained from Prof. Hohn, Friedrich Miescher Institute, Basel, Switzerland. Plants were germinated and grown on a solid or modified MS basal medium in presence of varying quantities of KCl. In order to establish KCl as the single source of potassium in all the modified media, KNO3, normally present in MS media was omitted. Additionally, potassium dihydrogenphosphate (KH2PO4) was replaced with ammonium dihydrogenphosphate (NH4▪H2PO4).
# Nicotiana tabacum [1] = test: Calli regeneration under hygromycin selection after Agrobacterium transformation of leaves; type: in vivo; details: for Calli regenerated and transplanted: died on soil / Calli regenerated and transplanted: total: 20 leaves transformed
# Description: Seeds of tobacco cultivar “Big Havana” were surface-sterilized with a solution containing 1% bleach and 0.05% Tween-80, for about 3 minutes and then rinsed twice with sterile distilled water for about 5 minutes. Surface-sterilized seeds were plated in 100 mm Petri dishes on sterile Whatman® filter paper submersed in 4 ml of liquid MS medium containing varying amounts of KCl and the plants were transferred to a growth chamber for germination. Once germinated, the plants were removed from the growth chamber and grown for a period of one week under conditions of 16-hours light, 22° C. and 8-hours dark, 18° C. Three to five one-week-old plants were then removed from the 4-ml liquid medium and were transferred to single sterile glass 250-ml flasks containing 15 ml of sterile liquid MS media supplemented with varying amounts of KCl. Flasks were then installed on shakers at 50-75 rpm. Plants were continuously grown under conditions of 16-hours light, 22° C. and 8-hours dark, 18° C. The growth medium in each flask was replaced weekly with 25 ml of fresh medium. Following a 3-week period, plants were removed from the flasks and 2 to 3 pairs of fully developed fresh leaves about 2-4 cm long were harvested (cut from the plant) for transformation with Agrobacteria.
# Experimental groups of tobacco plants were germinated and grown in a liquid medium culture supplemented with varying amounts of KCl. Control plants for the transformation experiments were grown in a standard MS-medium that was not supplemented with KCl.
# Four weeks post-germination, the tobacco plants were removed from the liquid medium culture. The leaves from the plants were removed, and several parallel incisions were made along the leaves. The leaves were then vacuum infiltrated with an Agrobacterium suspension culture carrying the plasmid with LUC (gene coding for luciferase) and hygromycin (gene coding for the resistance to hygromycin) genes.
# The leaves were vacuum-infiltrated twice for about 5 minutes with the Agrobacterium suspension culture using standard procedures known in the art. Following vacuum-infiltration, the tobacco leaves were dried for about 5 to 10 minutes on sterile Whatman® filter paper to remove substantially all excess Agrobacterium cells. The leaves were then placed on plates containing MS medium, and each of the plates were placed for in a room for a period of 3 day at a temperature of 22° C. and exposed to a daily regime of 16-hours of light and 8-hours of dark.
# Leaves from each of the experimental groups grown on the different media compositions having varying amounts of KCL and the controls were washed with sterile water to remove the Agrobacterium suspension. To remove traces of growth medium, leaves were blotted on sterile filter paper and then submersed in a Petri dish laid out with Whatman® filter paper containing re-suspended Agrobacterium cells. Each submersed leaf surface was incised using a sharp surgical blade in parallel along the side veins. The distance between the two parallel incisions was about 5-7 mm. The primary leaf vein and leaf margins were left intact. Once cutting was complete, leaves remained submersed for a period of about 10 minutes. Leaves were then removed from the Petri dish and were blotted dry and placed upside-down on plates of MS medium, and were incubated in a dark room at 22° C. for a period of 3 days. […]
# After a period of about 3 to 4 weeks, the numbers of regenerated calli were determined. […]
# Nicotiana tabacum [2] = test: Stable T-DNA integration (LUC expression test of regenerated plantlets); type: in vivo; details: for Calli regenerated and transplanted, LUC expression test: LUC negative / Calli regenerated and transplanted, LUC expression test: LUC positive: 20 leaves transformed
# Description: The number of transgenic plants, having incorporated a marker gene, regenerated from tobacco calli in various transformation experiments were counted. All the regenerated plants were screened using a luciferase camera. Spraying the transgenic plants with luciferine, the substrate for luciferase enzyme, allowed the identification of transgenic plants expressing the luciferase.
# The newly appeared plantlets regenerated from the calli of Example 4 showing evidence of root formation, were excised from the calli and transferred to soil.
# Plantlets were sprayed with luciferine, and the total number of luciferase-positive plantlets was scored. This allowed the calculation of the transformation frequency, as the number of plants expressing LUC gene to the number of transformed leaves, shown in FIG. 7.
smiles,measurement,setting,value
"[Cl-].[K+] [KCl, potassium chloride]",increase in homologous recombination vs control MS medium,Arabidopsis thaliana; modified medium with 18.8 mM KCl,9.3 fold
same,increase in homologous recombination vs control MS medium,Arabidopsis thaliana; modified medium with 47 mM KCl,15.4 fold
same,increase in homologous recombination vs control MS medium,Arabidopsis thaliana; modified medium with 94 mM KCl,19.2 fold
same,effect on plant phenotype / plant biomass,Arabidopsis; 100 mM KCl in MS medium,no decrease in plant biomass was observed
same,Calli regenerated and transplanted: died on soil,Nicotiana tabacum [1]; 47 mM KCl,0
same,Calli regenerated and transplanted: total,Nicotiana tabacum [1]; 47 mM KCl,138
same,Calli regenerated and transplanted: died on soil,Nicotiana tabacum [1]; 94 mM KCl,3
same,Calli regenerated and transplanted: total,Nicotiana tabacum [1]; 94 mM KCl,181
same,increase in number of calli regenerated vs control medium,Nicotiana tabacum [1]; media containing 47 and 94 mM KCl,5.9 fold
same,"Integration frequency, LUC positive plants/leaf transformed",Nicotiana tabacum [2]; 47 mM KCl,5.3
same,difference in number of stable transformants vs control media,Nicotiana tabacum [2]; 47 mM KCl,5.9 fold
same,"Calli regenerated and transplanted, LUC expression test: LUC negative",Nicotiana tabacum [2]; 47 mM KCl,32
same,"Calli regenerated and transplanted, LUC expression test: LUC positive",Nicotiana tabacum [2]; 47 mM KCl,106
same,"Integration frequency, LUC positive plants/leaf transformed",Nicotiana tabacum [2]; 94 mM KCl,7.2
same,difference in number of stable transformants vs control media,Nicotiana tabacum [2]; 94 mM KCl,8.0 fold
same,"Calli regenerated and transplanted, LUC expression test: LUC negative",Nicotiana tabacum [2]; 94 mM KCl,41
same,"Calli regenerated and transplanted, LUC expression test: LUC positive",Nicotiana tabacum [2]; 94 mM KCl,144
[Cl-].[Cl-].[Mg+2] [MgCl2],effect on homologous recombination frequency,"Arabidopsis thaliana; MS medium + 12.5 mM MgCl2, 21 days post-germination",significantly positive effects
[Cl-].[Na+] [NaCl],RR (recombination rate),Arabidopsis thaliana; 25 mM NaCl in medium,12.29 ± 0.18 10^−8
same,Fold Increase of RR,Arabidopsis thaliana; 25 mM NaCl vs plants grown in absence of NaCl,1.64
same,RR (recombination rate),Arabidopsis thaliana; 75 mM NaCl in medium,22.52 ± 0.34 10^−8
same,Fold Increase of RR,Arabidopsis thaliana; 75 mM NaCl vs plants grown in absence of NaCl,3
same,RR (recombination rate),Arabidopsis thaliana; 100 mM NaCl in medium,29.57 ± 0.82 10^−8
same,Fold Increase of RR,Arabidopsis thaliana; 100 mM NaCl vs plants grown in absence of NaCl,3.93
same,effect on homologous recombination frequency,"Arabidopsis thaliana; MS medium + 25 mM NaCl, 21 days post-germination",significantly positive effects
same,increase in recombination frequency,Arabidopsis thaliana; exposure to 25-100 mM NaCl,2-4 fold
same,decrease in plant biomass,Arabidopsis; 75 mM NaCl in MS medium,~20%
same,decrease in plant biomass,Arabidopsis; 100 mM NaCl in MS medium,~50%
